In article PMC9004346, “Development of small cyclic peptides targeting the CK2α/β interface” (Chemical Communications (Cambridge, England), 2022) one finds IC50 and Kd data, which are given here for one compound.

The structures appear in SMILES notation. Substitutions are numbered along the chain they refer to. *1 amine or outer side, *2 acyl side, *3 side chain or, on linkers, in order; H or OH if unused. Where a SMILES comes first, the peptide text is derived from it. Bridges are numbered along the chain shown (N, C = ends). [ ]: non-standard residue; d: D form. Trp(2-yl) = O=C([C@H](Cc1c([*:3])[nH]c2ccccc12)N[*:1])[*:2]; hCys = N[C@@H](CCS)C(=O)O

In experiment [1] the target is T1, CK2α (Homo sapiens, UniProt P68400).
T1 construct: 571 nM CK2α_WT (residues 2-329); made in house
T1 sequence (P68400 2-329): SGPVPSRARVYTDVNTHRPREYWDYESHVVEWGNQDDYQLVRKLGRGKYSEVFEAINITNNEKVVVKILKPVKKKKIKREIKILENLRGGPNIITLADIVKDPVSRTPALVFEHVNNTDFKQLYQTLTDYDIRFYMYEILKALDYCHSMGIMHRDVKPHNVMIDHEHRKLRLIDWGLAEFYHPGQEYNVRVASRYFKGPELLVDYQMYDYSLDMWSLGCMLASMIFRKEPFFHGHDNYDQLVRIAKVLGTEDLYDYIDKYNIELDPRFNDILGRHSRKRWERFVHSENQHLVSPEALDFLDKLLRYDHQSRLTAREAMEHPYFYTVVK
In words: Fluorescence polarisation (FP) assay: displacement of a CK2β-like fluorescent probe from CK2α. Format: binding. Particulars: CK2α_WT (residues 2-329), fluorescein-labelled CK2β-based peptide probe, ±SEM. The source says: To assess the ability of the synthesised linear peptides to displace a CK2β-like fluorescent probe from CK2α, a fluorescence polarisation (FP) assay was used (Table 1, ESI 1.3.2 and Fig. S2, ESI ^†). […]
(§1) 1.5 Biophysical experiments
(§2) 1.5.1 Protein expression and purification
Three constructs of CK2α were used in this study. For FP assays, CK2α_WT was used (residues 2-329). […]
These constructs were cloned, expressed, and purified as previously described.19 1.5.2 Fluorescence polarisation
IC50’s were determined using a PHERAstar FS plate reader (BMG labtech). The fluorescein probe was measured using 485 nm excitation and 530 nm emission. The fluorescein probe was covalently linked to the N-terminus of the linear CK2β-based peptide RLYGFKIHPMAYQLQ. IC50’s were measured using 500, 167, 16.7, 8.33 and 0 μM of the test peptide at a constant concentration of DMSO. P7C8, P8C9, P+L and P+ were tested at concentrations of 50.0, 16.7, 1.67, 0.833 and 0 μM due to their higher potencies. The experiments were performed in a Corning 384-well plate with final concentrations of 571 nM CK2α_WT (residues 2-329), 7.4 μM fluorescent peptide (fluorescein probe was covalently linked to the N-terminus of the linear CK2β-based peptide RLYGFKIHPMAYQLQ), 200 mM NaCl, 40mM TRIS, 20 mM MgCl2 and pH 7.5. The plates were read after a 45 min incubation period. […]
Background: Fluorescence polarisation rises when a labelled molecule tumbles more slowly, as on binding a larger partner.

Experiment [2] concerns the target T2, CK2α (Homo sapiens, UniProt P68400, K74A/K75A/K76A/R21S).
T2 construct: CK2α_KA (residues 2-329) contained four mutations; made in house
T2 sequence (P68400 2-329 R21S/K74A/K75A/K76A): T1 sequence (P68400 2-329) with R20S, K73A, K74A, K75A
In words: Isothermal titration calorimetry (ITC) binding to CK2α. Particulars: 25 °C, CK2α_KA.
Description: Ligand efficiency (LE) is a commonly used statistic to evaluate and compare the effectiveness of drug candidates.17 Mathematically, it is related to the IC50 of the molecule, as well as the number of heavy atoms (non-hydrogen) it contains, as detailed in Equation 1. 18
Equation 1 Mathematical expression for the ligand efficiencies of compounds.18 pIC50 = -log10(IC50) LE = Number of non ‒ H atoms […]
greatest activity with the fewest heavy atoms.
as §1, §2
Three constructs of CK2α were used in this study. For FP assays, CK2α_WT was used (residues 2-329).
For ITC CK2α_KA construct was used whilst CK2α_FP10 was used for crystallisation purposes. CK2α_KA (residues 2-329) contained four mutations designed to aid crystallisation and solubility by reducing the overall charge of the protein; R21S, K74A, K75A and K76A. CK2α_FP 10 contained one mutation (R21S) and an N-terminal extension […] aimed at mimicking a substrate peptide for CK2α. These constructs were cloned, expressed, and purified as previously described.19 1.5.2 Fluorescence polarisation
IC50’s were determined using a PHERAstar FS plate reader (BMG labtech). The fluorescein probe was measured using 485 nm excitation and 530 nm emission. The fluorescein probe was covalently linked to the N-terminus of the linear CK2β-based peptide RLYGFKIHPMAYQLQ. IC50’s were measured using 500, 167, 16.7, 8.33 and 0 μM of the test peptide at a constant concentration of DMSO. P7C8, P8C9, P+L and P+ were tested at concentrations of 50.0, 16.7, 1.67, 0.833 and 0 μM due to their higher potencies. The experiments were performed in a Corning 384-well plate with final concentrations of 571 nM CK2α_WT (residues 2-329), 7.4 μM fluorescent peptide (fluorescein probe was covalently linked to the N-terminus of the linear CK2β-based peptide RLYGFKIHPMAYQLQ), 200 mM NaCl, 40mM TRIS, 20 mM MgCl2 and pH 7.5. The plates were read after a 45 min incubation period.
1.5.3 Isothermal titration calorimetry
All ITC experiments were performed at 25 °C using a MicroCal ITC-200 (GE Healthcare). […]
In general terms: In ITC the heat of successive injections is recorded.

As to `CC(=O)N[C@H]1CCSc2[nH]c3ccccc3c2C[C@@H](C(N)=O)NC(=O)[C@H](CCCCN)NC(=O)[C@H](Cc2ccccc2)NC(=O)CNC(=O)[C@H](Cc2ccc(O)cc2)NC(=O)[C@H](CC(C)C)NC(=O)[C@H](CCCNC(=N)N)NC1=O` [Peptide P8C9, (hC)C9RLYGFKWC9] (Ac-[hCys]RLYGFK[Trp(2-yl)]-NH2; thioether 1-8), the half-inhibitory concentration (IC50) on CK2α [1] is 1700 ± 300 nM. The compound also had a Kd on CK2α [2] of 750 nM.

The IC50 is the concentration needed to halve the response being measured. Read a low IC50 as inhibition by little substance. For orientation: Kd means a measure of binding affinity in units of concentration. A low value points to a tighter complex.
